Measurements from PMC6199744, “Development of Chemical Proteomics for the Folateome and Analysis of the Kinetoplastid Folateome” (ACS Infectious Diseases, 2018).

Columns and labels:
Format in all cases: binding
[1] = target: T1, HeLa cell extract proteins (Homo sapiens, UniProt O75396); conditions: protein SEC22B; HeLa
T1 construct: endogenous in cells; host or cells: HeLa cell extract
T1 sequence (O75396 1-215): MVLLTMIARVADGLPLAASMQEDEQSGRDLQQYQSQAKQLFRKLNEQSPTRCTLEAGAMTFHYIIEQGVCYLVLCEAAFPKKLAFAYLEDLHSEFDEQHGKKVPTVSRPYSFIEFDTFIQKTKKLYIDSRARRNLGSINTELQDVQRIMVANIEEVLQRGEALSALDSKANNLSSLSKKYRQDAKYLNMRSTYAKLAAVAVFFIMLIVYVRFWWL

[2] = target: T2, HeLa cell extract proteins (Homo sapiens, UniProt P17655); conditions: protein CAPN2; HeLa
T2 construct: endogenous in cells; host or cells: HeLa cell extract
T2 sequence (P17655 1-700): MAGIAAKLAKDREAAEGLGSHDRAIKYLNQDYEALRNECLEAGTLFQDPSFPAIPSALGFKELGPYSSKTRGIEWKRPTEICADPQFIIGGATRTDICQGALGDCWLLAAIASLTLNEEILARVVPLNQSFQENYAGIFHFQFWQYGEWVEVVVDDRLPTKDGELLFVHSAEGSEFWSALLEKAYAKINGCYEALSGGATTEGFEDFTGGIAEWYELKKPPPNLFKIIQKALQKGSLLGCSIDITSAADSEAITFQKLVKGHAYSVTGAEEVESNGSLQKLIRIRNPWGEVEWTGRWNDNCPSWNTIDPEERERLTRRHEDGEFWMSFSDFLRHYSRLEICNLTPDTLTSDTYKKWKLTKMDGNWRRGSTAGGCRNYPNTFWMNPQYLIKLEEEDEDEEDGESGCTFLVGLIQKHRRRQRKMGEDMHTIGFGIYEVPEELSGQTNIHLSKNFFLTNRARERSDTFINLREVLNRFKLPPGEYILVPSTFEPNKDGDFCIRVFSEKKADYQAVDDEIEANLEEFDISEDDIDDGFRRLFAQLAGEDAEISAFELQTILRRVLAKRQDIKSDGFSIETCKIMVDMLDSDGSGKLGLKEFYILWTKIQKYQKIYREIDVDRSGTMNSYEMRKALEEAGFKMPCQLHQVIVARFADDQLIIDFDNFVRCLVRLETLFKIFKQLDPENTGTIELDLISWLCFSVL

[3] = target: T3, HeLa cell extract proteins (Homo sapiens, UniProt P30405); conditions: protein PPIF; HeLa
T3 construct: endogenous in cells; host or cells: HeLa cell extract

[4] = target: T4, HeLa cell extract proteins (Homo sapiens, UniProt Q00653); conditions: protein NFKB2; HeLa
T4 construct: endogenous in cells; host or cells: HeLa cell extract
T4 sequence (Q00653 1-900): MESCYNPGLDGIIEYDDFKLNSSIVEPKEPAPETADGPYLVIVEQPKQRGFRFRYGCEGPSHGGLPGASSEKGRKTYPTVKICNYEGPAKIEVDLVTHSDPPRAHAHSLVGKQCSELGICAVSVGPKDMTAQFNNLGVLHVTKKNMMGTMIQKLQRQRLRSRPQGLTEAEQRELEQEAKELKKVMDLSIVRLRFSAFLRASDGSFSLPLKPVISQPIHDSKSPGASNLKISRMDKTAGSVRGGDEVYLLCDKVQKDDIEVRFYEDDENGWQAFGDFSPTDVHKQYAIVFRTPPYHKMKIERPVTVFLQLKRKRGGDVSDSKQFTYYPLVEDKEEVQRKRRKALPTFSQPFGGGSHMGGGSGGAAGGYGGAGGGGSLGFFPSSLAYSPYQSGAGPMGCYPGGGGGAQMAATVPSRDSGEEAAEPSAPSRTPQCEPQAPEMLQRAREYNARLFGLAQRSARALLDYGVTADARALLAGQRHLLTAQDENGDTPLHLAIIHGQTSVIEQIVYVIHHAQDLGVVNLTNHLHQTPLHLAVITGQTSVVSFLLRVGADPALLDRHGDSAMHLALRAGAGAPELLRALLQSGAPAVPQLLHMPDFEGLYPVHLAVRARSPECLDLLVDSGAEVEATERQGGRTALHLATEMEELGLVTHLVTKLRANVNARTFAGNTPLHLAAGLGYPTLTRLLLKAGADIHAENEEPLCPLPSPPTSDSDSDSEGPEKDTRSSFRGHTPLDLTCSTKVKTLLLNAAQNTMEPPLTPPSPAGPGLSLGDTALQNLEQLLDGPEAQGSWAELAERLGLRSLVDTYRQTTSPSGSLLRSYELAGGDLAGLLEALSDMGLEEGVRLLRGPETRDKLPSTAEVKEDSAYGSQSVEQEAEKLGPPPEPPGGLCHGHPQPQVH

[5] = target: T5, HeLa cell extract proteins (Homo sapiens, UniProt Q969Y2); conditions: captured protein GTPBP3; HeLa
T5 construct: endogenous in cells; host or cells: HeLa cell extract
T5 sequence (Q969Y2 21-492): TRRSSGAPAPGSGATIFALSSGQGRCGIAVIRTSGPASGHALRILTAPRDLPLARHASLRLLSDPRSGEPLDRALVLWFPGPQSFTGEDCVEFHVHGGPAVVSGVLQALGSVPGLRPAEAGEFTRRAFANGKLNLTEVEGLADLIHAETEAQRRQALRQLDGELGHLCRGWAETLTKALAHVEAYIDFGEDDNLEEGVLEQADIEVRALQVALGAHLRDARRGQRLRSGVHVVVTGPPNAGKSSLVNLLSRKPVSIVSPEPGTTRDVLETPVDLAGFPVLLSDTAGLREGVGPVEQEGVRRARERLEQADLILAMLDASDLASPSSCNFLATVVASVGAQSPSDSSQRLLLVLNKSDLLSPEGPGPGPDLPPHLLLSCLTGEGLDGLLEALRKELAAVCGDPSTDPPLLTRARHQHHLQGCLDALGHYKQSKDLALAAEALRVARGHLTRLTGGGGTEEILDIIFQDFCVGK

[6] = target: T6, HeLa cell extract proteins (Homo sapiens, UniProt Q9BUF5); conditions: HeLa; protein TUBB6
T6 construct: endogenous in cells; host or cells: HeLa cell extract

[7] = target: T7, HeLa cell extract proteins (Homo sapiens, UniProt Q9UGJ1); conditions: HeLa; protein TUBGCP4
T7 construct: endogenous in cells; host or cells: HeLa cell extract
T7 sequence (Q9UGJ1 whole entry): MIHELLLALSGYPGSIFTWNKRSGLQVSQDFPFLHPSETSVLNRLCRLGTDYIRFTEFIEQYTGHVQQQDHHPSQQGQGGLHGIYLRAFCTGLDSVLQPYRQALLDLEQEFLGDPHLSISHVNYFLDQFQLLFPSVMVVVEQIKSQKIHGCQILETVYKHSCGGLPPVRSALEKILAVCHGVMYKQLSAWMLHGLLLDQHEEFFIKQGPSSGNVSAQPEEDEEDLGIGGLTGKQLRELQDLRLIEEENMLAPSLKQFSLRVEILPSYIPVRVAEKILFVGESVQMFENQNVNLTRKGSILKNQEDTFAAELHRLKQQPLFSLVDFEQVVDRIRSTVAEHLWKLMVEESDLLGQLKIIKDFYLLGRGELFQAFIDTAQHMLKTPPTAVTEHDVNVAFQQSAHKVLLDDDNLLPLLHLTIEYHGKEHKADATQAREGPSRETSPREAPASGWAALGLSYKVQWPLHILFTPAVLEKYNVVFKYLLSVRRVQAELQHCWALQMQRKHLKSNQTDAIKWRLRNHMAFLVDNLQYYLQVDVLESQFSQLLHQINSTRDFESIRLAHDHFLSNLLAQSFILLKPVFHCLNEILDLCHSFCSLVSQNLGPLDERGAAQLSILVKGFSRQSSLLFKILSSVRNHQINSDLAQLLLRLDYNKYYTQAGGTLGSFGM

T3 sequence (P30405 30-207): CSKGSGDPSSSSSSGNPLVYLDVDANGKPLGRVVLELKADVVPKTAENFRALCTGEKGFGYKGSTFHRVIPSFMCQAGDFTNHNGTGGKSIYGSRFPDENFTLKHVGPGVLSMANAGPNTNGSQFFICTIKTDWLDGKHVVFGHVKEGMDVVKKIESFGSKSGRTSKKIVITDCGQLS
T6 sequence (Q9BUF5 whole entry): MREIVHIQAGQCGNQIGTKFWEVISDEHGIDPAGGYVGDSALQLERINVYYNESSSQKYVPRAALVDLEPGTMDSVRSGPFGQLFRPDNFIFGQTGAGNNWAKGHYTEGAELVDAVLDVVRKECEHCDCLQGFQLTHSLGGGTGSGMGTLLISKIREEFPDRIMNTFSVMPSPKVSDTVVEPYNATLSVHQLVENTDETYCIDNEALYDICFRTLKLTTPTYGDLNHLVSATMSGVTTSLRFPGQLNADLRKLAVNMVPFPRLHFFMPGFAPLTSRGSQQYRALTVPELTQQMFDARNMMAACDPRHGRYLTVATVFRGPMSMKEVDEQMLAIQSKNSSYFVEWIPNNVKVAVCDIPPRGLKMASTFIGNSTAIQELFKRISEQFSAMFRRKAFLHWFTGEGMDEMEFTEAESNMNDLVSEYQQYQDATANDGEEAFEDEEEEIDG

| SMILES | fold changes relative to vehicle control [1] | fold changes relative to vehicle control [2] | fold changes relative to vehicle control [3] | fold changes relative to vehicle control [4] | fold changes relative to vehicle control [5] | fold changes relative to vehicle control [6] | fold changes relative to vehicle control [7] |
| --- | --- | --- | --- | --- | --- | --- | --- |
| Nc1nc2cccc(-c3ccccc3)c2n1Cc1ccc(Cl)c(Cl)c1 [compound 3] | 0.89 | 0.91 | 0.95 | 0.9 | 0.95 | 1.19 | 1.02 |
| CCCCCCOc1cccc(Cc2cnc(N)nc2N)c1 [compound 2] | 1.41 | 1.23 | 1.79 | 1.24 | 1.05 | 0.91 | 1.07 |
| CCCCCCOc1ccc(Cc2cnc(N)nc2N)cc1 [compound 1] | 0.96 | 0.97 | 1.23 | 0.9 | 0.4 | 0.7 | 0.85 |
